Series [1] deals with SHR rats. The note with it: unmodified ADM peptide; stated as what it normally lasts, no figure; cited from earlier work.
Series [2] concerns SHR rats. Nature of the series: Systolic blood pressure in conscious SHR rats (tail-cuff) after i.p. intermedin peptides. It is filed as in vivo, rat. The note with it: for duration of hypotensive effect in vivo: i.p. An excerpt:
FIG. 1A-1C are examples of blood pressure measurements in SHR rats after treatment with a long-acting intermedin peptide (Palmitic acid-modified IMD, IMD-PA), A. 30 nmoles/kg BW; B/C, 100 nmoles/kg BW.
FIG. 2A-2B are examples of blood pressure measurements in SHR rates after injection with a wild type intermedin peptide (IMD, 100 nmoles/kg BW). The hypotensive effects of the IMD-PA peptide lasted over five hours in vivo, whereas that of the unmodified IMD peptide lasted less than 1 hr.
(§1) The intermedin peptides were dissolved in saline solution with 10-20% DMSO at 10 micromoles/liter, Before injection, aliquots of peptides were dissolved in PBS to a injection final volume of 100 ul. Blood pressure measurements were made in conscious SHR rats (9-16 weeks of age) pre-adapted to the measurement procedure. Indirect systolic pressure was determined by a programmable non-invasive blood pressure system using the tail-cuff method (Kent Scientific Corporation). Following attachment of the pressure transducer, rats were left undisturbed for 10 min before base-line measurements that spanned a 15-20 minute interval. Following base-line measurements, rats were injected intraperitoneally with varying doses of peptides, or saline with 10% DMSO. Blood pressure and heart rate were monitored for 20-40 min at 30-s intervals. Changes in blood pressure were calculated as the average of measurements performed within a given time interval.
The hypotensive effects of this peptide lasted over five hours in vivo, whereas that of the unmodified IMD peptide lasted less than 1 hr. The results from control animals injected with PBS is depicted in FIG. 3, and from the unmodified peptide in FIG. 2.

Series [3] has as its system SHR rats. The experiment in a line: Systolic blood pressure in conscious SHR rats (tail-cuff) after i.p. adrenomedullin peptides. The series is classed as in vivo, rat. As for the experimental part: FIG. 5A-5C show examples of systolic pressure measurement of SHR rats after an injection of a long-acting adrenomedullin peptide (Palmitic acid-conjugated ADM, ADM-PA, 100 nmoles/kg BM. The hypotensive effect of this peptide lasted over five hours in vivo. By contrast, the hypotensive effect of unmodified ADM peptide normally lasts less than 1.5 hr.
as §1, with “Biological activity of adrenomedullin analog in vivo. The” for “The”, “adrenomedullin” for “intermedin”, “200 μl.” for “100 ul.”, “10-15” for “15-20”, “20-s” for “30-s”
(see Roh et al. Mol Endocrinol. 2005 November; 19(11):2824-38).

Series [4] has as its target T1, adrenomedullin receptor 1 (CLR/RAMP2) (Homo sapiens, UniProt O60895+Q16602).
T1 construct: expressed in transfected cells; host or cells: 293T cells
The experiment in a line: Stimulatory effect in 293T cells expressing recombinant adrenomedullin receptor 1. The series is classed as cell-based. The note with it: 293T cells expressing CLR/RAMP2. An excerpt:
(§2) Biological activity of adrenomedullin in vitro.

Series [5] deals with T2, adrenomedullin receptor 2 (CLR/RAMP3) (Homo sapiens, UniProt O60896+Q16602).
T2 construct: expressed in transfected cells; host or cells: 293T cells
T2 sequence (Q16602 23-461): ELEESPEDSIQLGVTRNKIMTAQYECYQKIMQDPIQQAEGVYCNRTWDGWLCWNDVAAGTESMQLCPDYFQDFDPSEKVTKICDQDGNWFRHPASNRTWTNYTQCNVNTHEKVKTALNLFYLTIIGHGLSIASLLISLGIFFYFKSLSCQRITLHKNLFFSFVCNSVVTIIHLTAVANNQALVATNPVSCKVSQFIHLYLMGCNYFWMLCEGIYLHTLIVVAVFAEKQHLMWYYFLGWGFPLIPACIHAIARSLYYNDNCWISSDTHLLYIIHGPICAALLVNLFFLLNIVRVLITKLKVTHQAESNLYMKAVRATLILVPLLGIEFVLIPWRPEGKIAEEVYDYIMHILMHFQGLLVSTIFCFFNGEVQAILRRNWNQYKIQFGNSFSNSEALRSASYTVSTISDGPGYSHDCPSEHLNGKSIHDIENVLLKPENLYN
T2 sequence (O60896 24-148): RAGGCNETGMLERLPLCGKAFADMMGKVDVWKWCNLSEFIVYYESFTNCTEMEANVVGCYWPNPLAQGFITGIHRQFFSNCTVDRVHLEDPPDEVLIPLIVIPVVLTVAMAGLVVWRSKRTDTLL
Nature of the series: Stimulatory effect in 293T cells expressing recombinant adrenomedullin receptor 2. The note with it: 293T cells expressing CLR/RAMP3. The series is classed as cell-based.
From the text: as §2

A short description of series [6]: Immunoreactive ADM retained in vivo after i.p. injection, by ELISA. (In general: ELISA stands for enzyme-linked immunosorbent assay.)

*1 amine or outer side, *2 acyl side, *3 side chain or, on linkers, in order; H or OH if unused. Where no end group is shown, it is not given here. K(Palm) = CCCCCCCCCCCCCCCC(=O)NCCCC[C@H](N[*:1])C(=O)[*:2]

T1 sequence (Q16602 23-461): as the sequence (Q16602 23-461) above
T1 sequence (O60895 43-175): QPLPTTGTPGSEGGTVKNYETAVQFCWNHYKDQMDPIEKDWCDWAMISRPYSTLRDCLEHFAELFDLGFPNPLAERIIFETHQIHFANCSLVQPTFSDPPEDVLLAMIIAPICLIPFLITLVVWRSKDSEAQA

For “ADM: wild type, unmodified adrenomedullin peptide (YRQSMNNFQGLRSFGCRFGTCTVQKLAHQIYQFTDKDKDNVAPRSKISPQGY; ends and bridges not checked; cysteine pairing not given here)”, the “duration of hypotensive effect (normally)” value with SHR rats [1] is given as “less than 1.5 hr”.
For “IMD: wild type, unmodified intermedin peptide (VGCVLGTCQVQNLSHRLWQLMGPAGRQDSAPVDPSSPHSY; ends and bridges not checked; cysteine pairing not given here) [reference compound]”, the “duration of hypotensive effect in vivo” value in the series with SHR rats [2] (unmodified IMD 100 nmoles/kg BW) is “less than 1 hr”.
Turning to “K(mod)GCRFGTCTVQKLAHQIYQFTDKDKDNVAPRSKISPQGY [ADM-PA]”, the “change in systolic blood pressure over time” value with SHR rats [3] (SHR rats, 100 nmoles/kg body weight) is “significant and long lasting drop”. For the same substance, in the series on SHR rats [3] (SHR rats, ADM-PA 100 nmoles/kg), the “duration of hypotensive effect in vivo” value is “over five”. Also, the “effective life in vivo compared with wild type ADM” value in the series on SHR rats [3] (in vivo) is “significantly longer effective life”. The “stimulatory effect in vitro compared with wild type ADM” value in series [4] and in series [5] was “lower than that of the wild type ADM” in each case. Besides, the “level of immunoreactive peptide retained in vivo compared with ADM” value in series [6] (12 hr after i.p. injection) is listed as “significantly higher”. Further, the “half-life compared with ADM” value in series [6] (measurement of immunoreactive ADM using ELISA) is on record as “long half-life as compared to ADM”.
Turning to “K(mod)GCVLGTCQVQNLSHRLWQLMGPAGRQDSAPVDPSSPHSY ({K(Palm)}-GCVLGTCQVQNLSHRLWQLMGPAGRQDSAPVDPSSPHSY; ends and bridges not checked) [IMD-PA, long-acting intermedin peptide, palmitic acid-modified via an incorporated Lys(PAL) residue]”, in the series on SHR rats [2] (i.p. injection), the “change in systolic blood pressure over time” value is “significant and long lasting drop”. Moreover, the “duration of hypotensive effect in vivo” value in the series on SHR rats [2] (IMD-PA 30 or 100 nmoles/kg BW) is on record as “over five”.

(Values after patent US11666633B2, “Long-acting peptide analogs” (The Board of Trustees of the Leland Stanford Junior …, priority 2011, dated 2023).)
